Source: patent publication US20230218654A1, “COMPOSITIONS AND METHODS FOR TREATING HYPERGLYCEMIA IN TYPE-2 DIABETES” (The Board of Regents of the university of Oklahoma, priority 2020, published 2023)
Entries after “also recorded” stand apart in the source; their conditions may differ.

Tests used:
[1] = tested on: high fat diet-fed mice; settings: i.p. injection; cited from earlier work
[2] = tested on: obese mice; test: Hyperinsulinemic-euglycemic clamp study; type: in vivo
Method: A hyperinsulinemic-euglycemic clamp study was conducted in which obese mice were treated with vehicle or MLN4924.

[3] = tested on: male C57BL/6J mice; test: Glucose tolerance test (GTT); type: in vivo; settings: 60 mg/kg SQ twice; for glucose tolerance in GTT: 6 h fast
Method: On the day of testing, mice were fasted for 6 h (from 9 am to 3 pm). Mice were then given 2 g/kg D-glucose via IP injection. Blood glucose was measured with an UltraTouch glucometer in time course over a 120-minute period.
Mice were treated with 2 doses of MLN4924 as described. After the second injection at 9 am, mice were fasted for 6 h from 9 am to 3 pm. Mice were injected intraperitoneally […] for PTT, and 0.5 U/kg insulin for ITT. Blood glucose was measured with a OneTouch Ultra glucose meter.

[4] = tested on: hepatic CRL (cullin) neddylation and hepatic insulin signaling; test: Western blot of liver lysates after acute MLN4924 injection; type: in vivo; settings: chow-fed mice, 6 h fast; for hepatic CRL (cullin) neddylation: 60 mg/kg at 5 pm day 1 and 9 am day 2 (IP or SQ)
Method: A. Western blot of liver lysates. Chow-fed male C56BL/6J mice were injected with 60 mg/kg MLN4924 or Vehicle (10% 2HO-β-cyclodextrin) at 5 pm on day 1 and 9 am on day 2, and sacrificed at 3 pm after 6 h fast. Upper arrow: Neddylated Cul3; Lower arrow: de-neddylated Cul3. Veh=vehicle; IP=intraperitoneal; SQ=subcutaneous.
FIG. 12A is a Western blot showing that MLN4924 inhibits liver cullin neddylation and increases IRS protein abundance and insulin signaling activation. Chow-fed male C56BL/6J mice were subcutaneously (SQ) injected 60 mg/kg MLN4924 or Veh (10 % 2HO-β-cyclodextrin) at 5 pm on day 1 and 9 am on day 2. Mice were fasted from 9 am to 3 pm on day 2 and sacrificed. Upper and lower arrows indicate neddylated cullin1 and cullin3 bands, respectively.
MLN4924 and TAS4464 were purchased from MedChemExpress (MCE, Monmouth Junction, NJ). For cell treatment, MLN4924 and TAS4464 were dissolved in DMSO. Cells were serum starved overnight and then treated with MLN4924, TAS4464 and/or insulin as indicated. For injection in mice, MLN4924 and TAS4464 were first dissolved in DMSO, which was further suspended in 10% (2-hydroxypropyl)-β-cyclodextrin (Sigma, St. Louis, MO). The final solution contains 1% DMSO. The subcutaneous injection volume is 200 µl/mouse.
Protein lysates were prepared in RIPA buffer containing 1% SDS and protease inhibitors on ice for 1 h followed by brief sonication. After centrifugation, supernatant was used for SDS-PAGE and immunoblotting.
WT male C57BL/6J mice were purchased from the Jackson Lab (Bar Harbor, ME). Western diet (TD. 88137, Envigo Inc. Indianapolis, IN) contains 42% fat calories and 0.2% cholesterol. Mice were housed in micro-isolator cages with corn cob bedding under 7 am - 7 pm light cycle and 7 pm -7 am dark cycle. MLN4924 was prepared in 10% 2-hydroxypropyl-b-cyclodextrin to a final concentration of 3 mg/ml. All mice were fasted for 6 h from 9 am to 3 pm before euthanasia. All animals received humane care according to the criteria outlined in the “Guide for the Care and Use of Laboratory Animals.” All animal protocols were approved by the Institutional Animal Care and Use Committee at the University of Kansas Medical Center and the University of Oklahoma Health Sciences Center.
Human normal livers (less than 5% steatosis) and histologically confirmed NASH livers were obtained from either the University of Kansas Liver Center or the Liver Tissue Cell Distribution System (LTCDS) at the University of Minnesota. Human and mouse tissue samples were homogenized in 1XRIPA buffer containing 1% SDS and protease inhibitors. After incubation on ice for 1 hour, the samples were centrifugation and supernatant was transferred to a new tube. The protein lysate was mixed with equal volume of 2X laemmli buffer and incubated at 95° C. for 5 minutes and used for SDS-PAGE and immunoblotting. ImageJ software (NIH) was used to determine band intensity.
To further explore the hepatic insulin sensitizing effect of neddylation inhibition in vivo, we administered MLN4924 to chow-fed mice twice via subcutaneous (SQ) injection (5 pm on day 1 and 9 am on day 2) and studied the acute effect of MLN4924. The dose of 60 mg/kg is in line with published literature. […] In addition to liver, skeletal muscle is another organ that quantitatively contribute to plasma glucose homeostasis.

[5] = tested on: primary human hepatocytes; test: Western blot of insulin signaling in primary human hepatocytes; type: cell-based
Method: Cells were pre-treated with increasing dose of MLN4924 for 1 h followed by 100 nM insulin stimulation for 4 h. Western blot was then performed to evaluate insulin signaling activation reflected by AKT phosphorylation.
Cells were treated with MLN4924 for 8 h. IRS1 band densitometry is shown as mean ± SEM of 8-9 independent batches. “* ”, vs. Vehicle, p less than 0.05.
Cells were treated with MLN4924 for 8 h. IRS2 band densitometry is shown as mean ± SEM of 8-9 independent batches. “* ”, vs. Vehicle, p less than 0.05.
FIG. 18B is a Western blot analysis showing that MLN4924 enhances hepatocyte insulin responsiveness (signaling) by delaying feedback IRS degradation. Primary human hepatocytes cells were serum starved for 16 h. Cells were then pre-treated with MLN4924 for 1 h followed by insulin stimulation for 4 h.
IRS protein in IRS 1 and IRS2 band intensity was normalized to Actin band intensity. n=8-9. “*”, p<0.05 (unpaired t-test), vs. Vehicle.
AML12 cells were a generous gift from Dr. Yanqiao Zhang (Northeast Ohio Medical University). AML12 cells were cultured in DMEM medium supplemented with a mixture of insulin-transferrin-selenium (#41400-045, ThermoFisher, Waltham, MA). For experiments, cells were cultured in serum free medium overnight before various treatments were initiated. The siGENOME SMARTpool siRNA and siControl were purchased from Dharmacon, Inc. (Lafayette, CO). […]

NS(=O)(=O)OC[C@@H]1C[C@@H](n2ccc3c(N[C@H]4CCc5ccccc54)ncnc32)C[C@@H]1O [MLN4924, ((1S,2S,4R)-4-(4-((1S)-2,3-dihydro-1H-inden-1-ylamino)-7H-pyrrolo[2,3-d]pyrimidin-7-yl)-2-hydroxycyclopentyl) methyl sulfamate]
obesity [1]: significantly reduces obesity
glucose infusion rate [2]: ~ 30 mg/kg/min
plasma insulin level during the clamp procedure [2]: ~ 3.75 ng/ml
peak blood glucose at 30 minutes post glucose challenge ([3]; vs vehicle): significantly lower
glucose tolerance in GTT ([3]; 3-week WD-fed mice): significantly improved glucose tolerance
basal glucose levels after 6 h fasting ([3]; chow condition): did not significantly decrease basal glucose levels
glucose tolerance in GTT ([3]; chow-fed mice, 60 mg/kg): significantly improved glucose tolerance; also recorded: improved overall glucose tolerance
hepatic CRL (cullin) neddylation ([4]; 60 mg/kg): effectively reduced hepatic CRL neddylation
hepatic CRL (cullin) neddylation ([4]; listed as MLN4924, 60 mg/kg): effectively reduced hepatic cullin neddylation
hepatic Y612 phosphorylated IRS1 ([4]; 60 mg/kg twice): increased Y612 phosphorylated IRS1
hepatic IRS1 and IRS2 protein ([4]; 60 mg/kg twice, 60 mg/kg): rapidly increased hepatic IRS1 and IRS2; also recorded: increased hepatic IRS proteins
hepatic phosphorylated AKT ([4]; 60 mg/kg twice, 60 mg/kg): higher phosphorylated AKT; also recorded: increased hepatic IRS proteins and AKT phosphorylation
IRS1 and IRS2 protein abundance ([5]; MLN4924 (500 nM) 8 h, independent batches): consistently increased IRS1 and IRS2 protein abundance; also recorded: increased IRS protein abundance
insulin activation of AKT ([5]; MLN4924 pre-treatment 1 h, 100 nM insulin 4 h): enhanced insulin activation of AKT; also recorded: increased IRS protein abundance and insulin-stimulated AKT activation
